Reference: ChEMBL document CHEMBL1131484, “Human growth hormone-releasing hormone hGHRH(1-29)-NH2: systematic structure-activity relationship studies” (J Med Chem, 1998)

Each compound was assayed against T1, Growth hormone-releasing hormone receptor (Rattus norvegicus) (UniProt Q02644) (assay: Potency for growth hormone releasing hormone receptor (GHRFR) relative to human GHRH(1-40)OH- in the rat pituitary cell culture assay). Details: Pituitary gland cell.
T1 sequence (whole entry): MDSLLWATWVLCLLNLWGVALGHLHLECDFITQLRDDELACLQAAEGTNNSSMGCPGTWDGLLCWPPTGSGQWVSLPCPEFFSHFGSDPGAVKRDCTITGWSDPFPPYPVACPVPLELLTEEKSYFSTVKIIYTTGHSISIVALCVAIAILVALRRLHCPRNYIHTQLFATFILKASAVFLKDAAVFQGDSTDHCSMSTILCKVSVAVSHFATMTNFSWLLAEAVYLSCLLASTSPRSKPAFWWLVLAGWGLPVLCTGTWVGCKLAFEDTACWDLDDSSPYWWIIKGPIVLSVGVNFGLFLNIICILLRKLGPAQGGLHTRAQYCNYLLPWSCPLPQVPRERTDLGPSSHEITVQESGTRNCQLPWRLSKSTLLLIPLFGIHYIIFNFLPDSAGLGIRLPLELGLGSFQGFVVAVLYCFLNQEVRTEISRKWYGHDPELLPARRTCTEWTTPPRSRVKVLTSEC
Type: functional, cell-based

Structure (SMILES)	Relative potency
CCCC[C@H](NC(=O)[C@@H](NC(=O)[C@H](CC(=O)O)NC(=O)[C@H](CCC(N)=O)NC(=O)[C@H](CC(C)C)NC(=O)[C@H](CC(C)C)NC(=O)[C@H](CCCCN)NC(=O)[C@H](CCCN=C(N)N)NC(=O)[C@H](C)NC(=O)[C@H](CO)NC(=O)[C@H](CC(C)C)NC(=O)[C@H](CCC(N)=O)NC(=O)CNC(=O)[C@H](CC(C)C)NC(=O)[C@@H](NC(=O)[C@H](CCCCN)NC(=O)[C@H](CCCN=C(N)N)NC(=O)[C@H](Cc1ccc(O)cc1)NC(=O)[C@H](CO)NC(=O)[C@H](CC(N)=O)NC(=O)[C@@H](NC(=O)[C@H](Cc1ccccc1)NC(=O)[C@@H](NC(=O)[C@H](C)NC(=O)[C@H](CC(=O)O)NC(=O)[C@H](C)NC(=O)[C@@H](N)Cc1ccc(O)cc1)[C@@H](C)CC)[C@@H](C)O)C(C)C)[C@@H](C)CC)C(=O)N[C@@H](CO)C(=O)N[C@@H](CCCN=C(N)N)C(N)=O	2.38
CCCC[C@H]1NC(=O)[C@H]([C@@H](C)CC)NC(=O)[C@@H](NC(=O)[C@H](Cc2c[nH]cn2)NC(=O)[C@H](CC(C)C)NC(=O)[C@H](CC(C)C)NC(=O)[C@H](CCCCN)NC(=O)[C@H](CCCN=C(N)N)NC(=O)[C@H](Cc2ccccc2)NC(=O)[C@@H](NC(=O)[C@H](CC(C)C)NC(=O)[C@H](CCC(N)=O)NC(=O)[C@H](C)NC(=O)[C@H](CC(C)C)NC(=O)[C@@H](NC(=O)[C@H](CCCN=C(N)N)NC(=O)[C@H](CCCN=C(N)N)NC(=O)[C@H](Cc2ccc(O)cc2)NC(=O)[C@H](CO)NC(=O)[C@H](CO)NC(=O)[C@@H](NC(=O)[C@H](Cc2ccccc2)NC(=O)[C@@H](NC(=O)[C@H](C)NC(=O)[C@H](CC(=O)O)NC(=O)[C@H](C)NC(=O)[C@@](C)(N)Cc2c[nH]cn2)[C@@H](C)CC)[C@@H](C)O)[C@@H](C)CC)[C@@H](C)CC)CSSC[C@H](C(N)=O)NC(=O)[C@H](CC(N)=O)NC1=O	1.1
CCCC[C@H]1NC(=O)[C@H]([C@@H](C)CC)NC(=O)[C@H](NC(=O)[C@H](CCC(N)=O)NC(=O)[C@H](CC(C)C)NC(=O)[C@H](CC(C)C)NC(=O)[C@H](CCCCN)NC(=O)[C@H](CCCN=C(N)N)NC(=O)[C@H](C)NC(=O)[C@H](CO)NC(=O)[C@H](CC(C)C)NC(=O)[C@H](CCC(N)=O)NC(=O)[C@H](C)NC(=O)[C@H](CC(C)C)NC(=O)[C@@H](NC(=O)[C@H](CCCCN)NC(=O)[C@H](CCCN=C(N)N)NC(=O)[C@H](Cc2ccc(O)cc2)NC(=O)[C@H](CO)NC(=O)[C@H](CC(N)=O)NC(=O)[C@@H](NC(=O)[C@H](Cc2ccccc2)NC(=O)[C@@H](NC(=O)[C@H](C)NC(=O)[C@H](CC(=O)O)NC(=O)[C@H](C)NC(=O)[C@@](C)(N)Cc2ccc(O)cc2)[C@@H](C)CC)[C@@H](C)O)C(C)C)CCC(=O)NCC[C@H](C(N)=O)NC(=O)[C@H](CO)NC1=O	10.7
CCCC[C@H]1NC(=O)[C@H]([C@@H](C)CC)NC(=O)[C@H](NC(=O)[C@H](Cc2c[nH]cn2)NC(=O)[C@H](CC(C)C)NC(=O)[C@H](CC(C)C)NC(=O)[C@H](CCCCN)NC(=O)[C@H](CCCN=C(N)N)NC(=O)[C@H](Cc2ccccc2)NC(=O)[C@@H](NC(=O)[C@H](CC(C)C)NC(=O)[C@H](CCC(N)=O)NC(=O)[C@H](C)NC(=O)[C@H](CC(C)C)NC(=O)[C@@H](NC(=O)[C@H](CCCN=C(N)N)NC(=O)[C@H](CCCN=C(N)N)NC(=O)[C@H](Cc2ccc(O)cc2)NC(=O)[C@H](CO)NC(=O)[C@H](CO)NC(=O)[C@@H](NC(=O)[C@H](Cc2ccccc2)NC(=O)[C@@H](NC(=O)[C@H](C)NC(=O)[C@H](CC(=O)O)NC(=O)[C@H](C)NC(=O)[C@@](C)(N)Cc2c[nH]cn2)[C@@H](C)CC)[C@@H](C)O)[C@@H](C)CC)[C@@H](C)CC)CSSC[C@H](C(N)=O)NC(=O)[C@H](CC(N)=O)NC1=O	1.5
CC[C@@H](C)[C@@H](NC(=O)[C@@H](C)NC(=O)[C@@H](CC(=O)O)NC(=O)[C@@H](C)NC(=O)[C@H](N)Cc1ccc(O)cc1)C(=O)N[C@H](Cc1ccccc1)C(=O)N[C@@H](C(=O)N[C@H](CC(N)=O)C(=O)N[C@H](CO)C(=O)N[C@H]1CCC(=O)NCCCC[C@H](C(=O)N[C@@H](CC(C)C)C(=O)NCC(=O)N[C@H](CCC(N)=O)C(=O)N[C@H](CC(C)C)C(=O)N[C@H](CO)C(=O)N[C@H](C)C(=O)N[C@H](CCCN=C(N)N)C(=O)N[C@H](CCCCN)C(=O)N[C@H](CC(C)C)C(=O)N[C@H](CC(C)C)C(=O)N[C@H](CCC(N)=O)C(=O)N[C@H](CC(=O)O)C(=O)N[C@@H](C(=O)N[C@H](CCSC)C(=O)N[C@H](CO)C(=O)N[C@H](CCCN=C(N)N)C(N)=O)[C@H](C)CC)NC(=O)[C@@H](CCCCN)NC(=O)[C@H](CCCN=C(N)N)NC1=O)[C@H](C)O	0.088
CC[C@@H](C)[C@@H](NC(=O)[C@@H](CC(=O)O)NC(=O)[C@@H](CCC(N)=O)NC(=O)[C@@H](CC(C)C)NC(=O)[C@H]1CCCCNC(=O)CC[C@H](NC(=O)[C@H](CO)NC(=O)[C@H](CC(C)C)NC(=O)[C@H](CCC(N)=O)NC(=O)CNC(=O)[C@H](CC(C)C)NC(=O)[C@@H](NC(=O)[C@H](CCCCN)NC(=O)[C@H](CCCN=C(N)N)NC(=O)[C@H](Cc2ccc(O)cc2)NC(=O)[C@H](CO)NC(=O)[C@H](CC(N)=O)NC(=O)[C@@H](NC(=O)[C@H](Cc2ccccc2)NC(=O)[C@@H](NC(=O)[C@H](C)NC(=O)[C@H](CC(=O)O)NC(=O)[C@H](C)NC(=O)[C@@H](N)Cc2ccc(O)cc2)[C@@H](C)CC)[C@@H](C)O)C(C)C)C(=O)N[C@@H](CCCN=C(N)N)C(=O)N[C@H](CCCCN)C(=O)N1)C(=O)N[C@@H](CCSC)C(=O)N[C@@H](CO)C(=O)N[C@@H](CCCN=C(N)N)C(N)=O	0.4
CC[C@@H](C)[C@@H](NC(=O)[C@@H](CC(=O)O)NC(=O)[C@H]1CCCCNC(=O)CC[C@H](NC(=O)[C@H](CCCN=C(N)N)NC(=O)[C@H](C)NC(=O)[C@H](CO)NC(=O)[C@H](CC(C)C)NC(=O)[C@H](CCC(N)=O)NC(=O)CNC(=O)[C@H](CC(C)C)NC(=O)[C@@H](NC(=O)[C@H](CCCCN)NC(=O)[C@H](CCCN=C(N)N)NC(=O)[C@H](Cc2ccc(O)cc2)NC(=O)[C@H](CO)NC(=O)[C@H](CC(N)=O)NC(=O)[C@@H](NC(=O)[C@H](Cc2ccccc2)NC(=O)[C@@H](NC(=O)[C@H](C)NC(=O)[C@H](CC(=O)O)NC(=O)[C@H](C)NC(=O)[C@@H](N)Cc2ccc(O)cc2)[C@@H](C)CC)[C@@H](C)O)C(C)C)C(=O)N[C@@H](CC(C)C)C(=O)N[C@H](CC(C)C)C(=O)N1)C(=O)N[C@H](CCSC)C(=O)N[C@H](CO)C(=O)N[C@H](CCCN=C(N)N)C(N)=O	4.5
CC[C@H](C)[C@H](NC(=O)[C@H](C)NC(=O)[C@H](CC(=O)O)NC(=O)[C@H](C)NC(=O)[C@@H](N)Cc1ccc(O)cc1)C(=O)N[C@@H](Cc1ccccc1)C(=O)N[C@H](C(=O)N[C@@H](CC(N)=O)C(=O)N[C@@H](CO)C(=O)N[C@@H](Cc1ccc(O)cc1)C(=O)N[C@@H](CCCN=C(N)N)C(=O)N[C@@H](CCCCN)C(=O)N[C@H](C(=O)N[C@@H](CC(C)C)C(=O)NCC(=O)N[C@@H](CCC(N)=O)C(=O)N[C@@H](CC(C)C)C(=O)N[C@@H](CO)C(=O)N[C@@H](C)C(=O)N[C@@H](CCCN=C(N)N)C(=O)N[C@@H](CCCCN)C(=O)N[C@@H](CC(C)C)C(=O)N[C@@H](CC(C)C)C(=O)N[C@@H](CCC(N)=O)C(=O)N[C@@H](CC(=O)O)C(=O)N[C@H](C(=O)N[C@@H](CCSC)C(=O)N[C@@H](CO)C(=O)N[C@@H](CCCN=C(N)N)C(=O)N[C@@H](CCC(N)=O)C(=O)N[C@H](CCC(N)=O)C(=O)NCC(=O)N[C@@H](CCC(=O)O)C(=O)N[C@@H](CO)C(=O)N[C@@H](CC(N)=O)C(=O)N[C@@H](CCC(N)=O)C(=O)N[C@@H](CCC(=O)O)C(=O)N[C@@H](CCCN=C(N)N)C(=O)NCC(=O)N[C@@H](C)C(=O)O)[C@@H](C)CC)C(C)C)[C@@H](C)O	1
CC[C@H](C)[C@H](NC(=O)[C@H](C)NC(=O)[C@H](CC(=O)O)NC(=O)[C@H](C)NC(=O)[C@@H](N)Cc1ccc(O)cc1)C(=O)N[C@@H](Cc1ccccc1)C(=O)N[C@H](C(=O)N[C@@H](CC(N)=O)C(=O)N[C@@H](CO)C(=O)N[C@@H](Cc1ccc(O)cc1)C(=O)N[C@@H](CCCN=C(N)N)C(=O)N[C@@H](CCCCN)C(=O)N[C@H](C(=O)N[C@@H](CC(C)C)C(=O)NCC(=O)N[C@@H](CCC(N)=O)C(=O)N[C@@H](CC(C)C)C(=O)N[C@@H]1CCC(=O)NCCCC[C@@H](C(=O)N[C@@H](CC(C)C)C(=O)N[C@@H](CC(C)C)C(=O)N[C@@H](CCC(N)=O)C(=O)N[C@@H](CC(=O)O)C(=O)N[C@H](C(=O)N[C@@H](CCSC)C(=O)N[C@@H](CO)C(=O)N[C@@H](CCCN=C(N)N)C(N)=O)[C@@H](C)CC)NC(=O)[C@H](CCCN=C(N)N)NC(=O)[C@@H](C)NC1=O)C(C)C)[C@@H](C)O	1.8
CC[C@H](C)[C@H](NC(=O)[C@H](C)NC(=O)[C@H](CC(=O)O)NC(=O)[C@H](C)NC(=O)[C@@H](N)Cc1ccc(O)cc1)C(=O)N[C@@H](Cc1ccccc1)C(=O)N[C@H](C(=O)N[C@@H](CC(N)=O)C(=O)N[C@@H](CO)C(=O)N[C@@H](Cc1ccc(O)cc1)C(=O)N[C@@H](CCCN=C(N)N)C(=O)N[C@@H](CCCCN)C(=O)N[C@H](C(=O)N[C@@H](CC(C)C)C(=O)NCC(=O)N[C@H]1CCC(=O)NCCCC[C@H](C(=O)N[C@@H](CCCN=C(N)N)C(=O)N[C@@H](CCCCN)C(=O)N[C@@H](CC(C)C)C(=O)N[C@@H](CC(C)C)C(=O)N[C@@H](CCC(N)=O)C(=O)N[C@@H](CC(=O)O)C(=O)N[C@H](C(=O)N[C@@H](CCSC)C(=O)N[C@@H](CO)C(=O)N[C@@H](CCCN=C(N)N)C(N)=O)[C@@H](C)CC)NC(=O)[C@@H](CO)NC(=O)[C@H](CC(C)C)NC1=O)C(C)C)[C@@H](C)O	2.8
